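1) Cells in 96-well plates. 2) Compound, 48 h, 5 concentrations. 3) Linear interpolation between surrounding doses. 4) Unreached endpoint = highest concentration. Definition used: TGI = concentration required for complete inhibition of growth.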
Assays:
Assay in all cases: inhibition of tumour cell growth, NCI panel, 48 h
786-0 renal = test system: 786-0 renal
COLO 205 colon = test system: COLO 205 colon
HS 578T breast = test system: HS 578T breast
HT29 colon = test system: HT29 colon
LOX IMVI melanoma = test system: LOX IMVI melanoma
NCI-H226 lung = test system: NCI-H226 lung
OVCAR-3 ovarian = test system: OVCAR-3 ovarian
RPMI-8226 leukemia = test system: RPMI-8226 leukemia
SF-268 CNS = test system: SF-268 CNS
U251 CNS = test system: U251 CNS

| Compound | TGI (786-0 renal) [µM] | TGI (COLO 205 colon) [µM] | TGI (HS 578T breast) [µM] | TGI (HT29 colon) [µM] | TGI (LOX IMVI melanoma) [µM] | TGI (NCI-H226 lung) [µM] | TGI (OVCAR-3 ovarian) [µM] | TGI (RPMI-8226 leukemia) [µM] | TGI (SF-268 CNS) [µM] | TGI (U251 CNS) [µM] |
| --- | --- | --- | --- | --- | --- | --- | --- | --- | --- | --- |
| CSc1ccccc1P(CCP(c1ccccc1SC)c1ccccc1SC)c1ccccc1SC | > 100 | > 53 | > 100 | > 100 | > 100 | > 45.2 | > 33.5 | > 88.1 | > 100 | > 100 |
| OC(O)(C(F)(F)F)C(F)(F)F | > 100 | > 100 | > 100 | > 100 | > 100 | > 100 | > 100 | > 100 | > 100 | > 100 |
| COC(=O)C1[C@H](C(=O)OC)C1(Br)CBr (stereo partly specified) | > 100 | > 100 | > 100 | > 100 | > 100 | > 100 | > 100 | > 100 | > 100 | > 100 |
| O=S(=O)(O)c1ccc(Nc2ccnc3cc(Cl)ccc23)cc1 | > 100 | > 100 | > 100 | > 100 | > 100 | > 100 | > 100 | > 100 | > 100 | > 100 |
| C[C@@H]1OCC(O)C([C@H]2OC(c3ccccc3)=N[C@H]2CO)O1 (stereo partly specified) | > 100 | > 100 | > 100 | > 100 | > 100 | > 100 | > 100 | > 100 | > 100 | > 100 |
| S=C(Nc1ccc2c(c1)Cc1ccccc1-2)Nc1ccc2c(c1)Cc1ccccc1-2 | > 100 | > 100 | > 100 | > 100 | > 100 | > 100 | > 100 | > 100 | > 100 | > 100 |
| COc1cccc(C2CC(=O)c3cccn32)c1 (stereo unspecified) | > 100 | > 100 | > 100 | > 100 | > 100 | > 100 | > 100 | > 100 | > 100 | > 100 |
| O=C(/C=C/c1ccccc1)CCc1c(O)c2ccccc2oc1=O | > 100 | > 100 | > 100 | > 100 | > 100 | > 100 | > 100 | > 100 | > 100 | > 100 |
| C=CCn1c(=O)c2ccccc2[n+]2c(-c3cccc([N+](=O)[O-])c3)csc12 | > 100 | 98.6 | > 100 | > 100 | > 100 | > 100 | > 100 | > 100 | > 100 | > 100 |
| C/C(=C\CNc1nc(Cl)nc2nc[nH]c12)CO | > 100 | > 100 | > 100 | > 100 | > 100 | > 100 | > 100 | > 100 | > 100 |  |
| O=C(NCc1ccccc1)c1c(O)c2ccccc2[nH]c1=O | > 100 | > 100 | > 100 | > 100 | > 100 | > 100 | > 100 | > 100 | > 100 | > 100 |
| CCCCCCCCC[n+]1cccc(C2C(C(=O)OCC)=C(C)NC(C)=C2C(=O)OCC)c1 | 26.9 | 8.06 | 10.7 | 11.7 | 9.34 | 28.7 | 11.8 | 5.28 | 16.9 | 12.6 |
| O=C1C(=Cc2ccccc2[N+](=O)[O-])N=C(c2ccccc2)N1n1c(-c2ccccc2)nc2ccccc2c1=O | > 100 | > 100 | 86 | > 100 | 68.5 | 85.3 | > 100 | 66.6 | > 100 | > 100 |
| C=C1C(=O)O[C@H]2C3C(=C(C)CC[C@@H]12)C(=O)[C@@H]1OC31C (stereo partly specified) | 3.26 | 2.66 | 9.8 | 4.28 | 5.79 | 20.5 | 4.38 | 3.62 | 12.6 | 26.3 |
| Nc1ccc(-c2nc3ccccc3s2)cc1 | 29.7 | 45.2 | > 84 | 40.1 | 33 | 49 | 33.3 | 61.1 | 31.4 | 31.9 |
| Cc1cc(C)c2c(c1)CC1(Cc3c(C)cc(C)cc3C1=O)C2=O (stereo unspecified) | > 100 | > 100 | > 100 |  | > 100 | > 100 | > 100 | > 100 | > 100 | > 100 |
| CCOC(=O)c1cc(-c2ccn(C(C)=O)c2)c(-c2cc(C)co2)[nH]1 | > 100 | > 100 | > 100 |  | > 100 | > 100 | > 100 | > 100 | > 100 | > 100 |

| Compound | TGI (786-0 renal) [µM] | TGI (COLO 205 colon) [µM] | TGI (HS 578T breast) [µM] | TGI (HT29 colon) [µM] | TGI (LOX IMVI melanoma) [µM] | TGI (NCI-H226 lung) [µM] | TGI (OVCAR-3 ovarian) [µM] | TGI (RPMI-8226 leukemia) [µM] | TGI (SF-268 CNS) [µM] | TGI (U251 CNS) [µM] |
| --- | --- | --- | --- | --- | --- | --- | --- | --- | --- | --- |
| O=C(NCc1cccnc1)C(=O)NCc1cccnc1 | > 100 | > 100 | > 100 | > 100 | > 100 | > 100 | > 100 | > 100 | > 100 | > 100 |
| N#Cc1c(-c2ccc(Cl)cc2)cc(-c2nc3ccccc3[nH]2)nc1N | 23.3 | 20.1 | 73.3 | 25.5 | 28 | 28 | 41.8 | 47.1 | 34.6 |  |
| COc1ccc(C2NC(=O)Nc3c2c(=O)oc2c3ccc3ccccc32)cc1 (stereo unspecified) | > 100 | > 100 | > 100 | > 100 | > 100 | 96.9 | > 100 | > 100 | > 100 | > 100 |
| COc1ccc(C2=NNC(=O)c3ccccc3N2c2nc(-c3cccs3)nc3ccc(Br)cc23)cc1 | 82 | > 100 | > 100 | > 100 | > 100 | 73.7 | 52.5 | > 100 | > 100 | > 100 |
| N#Cc1c(C#N)c(-c2ccccc2)n(/N=C\c2ccccc2)c1N | > 100 | 72 | 61.3 | 83.1 | 32.8 | 68.7 | 48.1 | 40.1 | > 100 | 47.4 |
| COC(=O)C[C@H](CCSC)NC(=O)C[C@H](CCSC)NC(=O)C[C@H](CCSC)NC(=O)OC(C)(C)C | > 100 | > 100 | > 100 | > 100 | > 100 | > 100 | 48 | > 100 | 59.2 | 56 |
| c1ccc2c(c1)c1c3n2-c2cc(on2)C3CCC1 (stereo unspecified) | > 100 | > 100 | > 100 | > 100 | > 100 | > 100 | > 100 | > 100 | > 100 | > 100 |
| COC(=O)C(C(=O)OC)C1CC(=O)c2c(Br)sc(Br)c21 (stereo unspecified) | > 100 | 28.5 | 85.7 | 32.9 | 26.7 | 53.4 | 17.5 | 26.4 | 52.8 | 29.8 |
| O=c1oc2ccccc2c(O)c1Cc1cccc(Cc2c(O)c3ccccc3oc2=O)c1 | > 100 | > 100 | > 100 | > 100 | > 100 | > 100 | > 100 | > 100 | > 100 | > 100 |
| COC1=CC(=O)c2c(cc(COP(=O)(N(C)CCBr)N(C)CCBr)n2C)C1=O | 2.87 | 2.56 | 5.04 | 1.42 | 3.31 | 1.43 | 10.7 | 4.11 | > 38.2 | 8.43 |
| COC(=O)C1=C(C)NC2(C)OC(C)(O)C(C(C)=O)C12C(C)=O (stereo unspecified) | > 100 | > 100 | 65.1 | > 100 | > 100 | 53.1 | > 100 | > 100 | > 100 | > 100 |
| CCCC(=O)OC1CC(n2cc(F)c(=O)[nH]c2=O)OC1CO (stereo unspecified) | > 10 | > 10 | > 10 | > 10 | > 10 | > 10 | > 10 | > 10 | > 10 | > 10 |
| COc1cc2c(cc1O)CC[C@@H]1C2CC[C@@]2(C)C1CC[C@@H]2O (stereo partly specified) | > 100 | 81.3 | 7.63 | 64.6 | > 100 | > 100 | 7.17 | 13.5 | > 100 | > 62.4 |
| CCCCCCCCCCCCCCCCNc1ccn(C2CC(OP(=O)(O)OCC3OC(n4cc(CC)c(=O)[nH]c4=O)CC3O)C(CO)O2)c(=O)n1 (stereo unspecified) | > 100 | 92.4 | 67.1 | 46.1 | > 100 | > 100 | > 100 | 38.8 | 33.5 | 89.3 |
| Cc1cccc2c1C(=O)[C@@](C)([C@]1(C)Nc3cccc(C)c3C1=O)N2 | > 100 | > 100 | > 100 | > 100 | > 100 | > 100 | > 100 | > 100 | > 100 | > 100 |
| COc1ccc(NS(=O)c2cccc(C)c2)cc1 (stereo unspecified) | > 100 | > 100 | > 100 | > 100 | > 100 | > 100 | > 100 | > 100 | > 100 | > 100 |

From PubChem BioAssay (NCI)
